In PubChem BioAssay (NCI):
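Five compound concentrations were applied to cells in 96-well plates for 48 hours; endpoints were derived by simple linear interpolation of the resulting dose-response curve. TGI: total growth inhibition.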

Experiments:
Assay in all cases: growth of human tumour cells (NCI), 48 h
[1] = tested on: 786-0 renal
[2] = tested on: A498 renal
[3] = tested on: A549 NSCLC
[4] = tested on: ACHN renal
[5] = tested on: BT-549 breast
[6] = tested on: CAKI-1 renal
[7] = tested on: CCRF-CEM leukemia
[8] = tested on: COLO 205 colon
[9] = tested on: DU-145 prostate
[10] = tested on: EKVX NSCLC
[11] = tested on: HCC-2998 colon
[12] = tested on: HCT-116 colon
[13] = tested on: HCT-15 colon
[14] = tested on: HL-60(TB) leukemia
[15] = tested on: HOP-62 NSCLC
[16] = tested on: HS 578T breast
[17] = tested on: HT29 colon
[18] = tested on: IGROV1 ovarian
[19] = tested on: K-562 leukemia
[20] = tested on: KM12 colon
[21] = tested on: LOX IMVI melanoma
[22] = tested on: M14 melanoma
[23] = tested on: MALME-3M melanoma
[24] = tested on: MCF7 breast
[25] = tested on: MDA-MB-231 breast
[26] = tested on: MDA-MB-435
[27] = tested on: MDA-N
[28] = tested on: MOLT-4 leukemia
[29] = tested on: NCI-H226 lung
[30] = tested on: NCI-H23 lung
[31] = tested on: NCI-H460 lung
[32] = tested on: NCI-H522 lung
[33] = tested on: NCI/ADR-RES ovarian
[34] = tested on: OVCAR-3 ovarian
[35] = tested on: OVCAR-4 ovarian
[36] = tested on: OVCAR-5 ovarian
[37] = tested on: OVCAR-8 ovarian
[38] = tested on: PC-3 prostate
[39] = tested on: RPMI-8226 leukemia
[40] = tested on: RXF 393 renal
[41] = tested on: SF-268 CNS
[42] = tested on: SF-295 CNS
[43] = tested on: SF-539 CNS
[44] = tested on: SK-MEL-2 melanoma
[45] = tested on: SK-MEL-28 melanoma
[46] = tested on: SK-MEL-5 melanoma
[47] = tested on: SK-OV-3 ovarian
[48] = tested on: SN12C renal
[49] = tested on: SNB-19 CNS
[50] = tested on: SW-620 colon
[51] = tested on: T-47D breast
[52] = tested on: TK-10 renal
[53] = tested on: U251 CNS
[54] = tested on: UACC-257 melanoma
[55] = tested on: UACC-62 melanoma
[56] = tested on: HOP-92 NSCLC
[57] = tested on: SNB-75 CNS
[58] = tested on: SR leukemia
[59] = tested on: UO-31 renal

O=C1C=CC(=O)c2c1ccc1c3ccccc3n(CCCCCCCCn3c4ccccc4c4ccc5c(c43)C(=O)C=CC5=O)c21
TGI [1]: > 100 µM | TGI [2]: > 100 µM | TGI [3]: > 100 µM | TGI [4]: > 100 µM | TGI [5]: > 100 µM | TGI [6]: > 100 µM | TGI [7]: > 100 µM | TGI [8]: > 100 µM | TGI [9]: > 100 µM | TGI [10]: > 100 µM | TGI [11]: > 100 µM | TGI [12]: > 100 µM | TGI [13]: > 100 µM | TGI [14]: > 100 µM | TGI [15]: > 100 µM | TGI [16]: > 100 µM | TGI [17]: > 100 µM | TGI [18]: > 100 µM | TGI [19]: > 100 µM | TGI [20]: > 100 µM | TGI [21]: > 100 µM | TGI [22]: > 100 µM | TGI [23]: > 100 µM | TGI [24]: > 100 µM | TGI [25]: > 100 µM | TGI [26]: > 100 µM | TGI [27]: > 100 µM | TGI [28]: > 100 µM | TGI [29]: > 100 µM | TGI [30]: > 100 µM | TGI [31]: > 100 µM | TGI [32]: > 100 µM | TGI [33]: > 100 µM | TGI [34]: > 100 µM | TGI [35]: > 100 µM | TGI [36]: > 100 µM | TGI [37]: > 100 µM | TGI [38]: > 100 µM | TGI [39]: > 100 µM | TGI [40]: > 100 µM | TGI [41]: > 100 µM | TGI [42]: > 100 µM | TGI [43]: > 100 µM | TGI [44]: > 100 µM | TGI [45]: > 100 µM | TGI [46]: > 100 µM | TGI [47]: > 100 µM | TGI [48]: > 100 µM | TGI [49]: > 100 µM | TGI [50]: > 100 µM | TGI [51]: > 100 µM | TGI [52]: > 100 µM | TGI [53]: > 100 µM | TGI [54]: > 100 µM | TGI [55]: > 100 µM

C[C@]12CC[C@H](O)CC1=CC[C@@H]1C2CC[C@]2(C)c3n[nH]nc3CC12 (stereo partly drawn)
TGI [1]: > 100 µM | TGI [2]: > 100 µM | TGI [3]: > 100 µM | TGI [4]: > 100 µM | TGI [5]: > 100 µM | TGI [6]: > 100 µM | TGI [7]: > 100 µM | TGI [8]: > 100 µM | TGI [9]: > 100 µM | TGI [10]: > 100 µM | TGI [11]: > 100 µM | TGI [12]: > 100 µM | TGI [14]: > 100 µM | TGI [15]: > 100 µM | TGI [56]: > 100 µM | TGI [16]: > 100 µM | TGI [17]: > 100 µM | TGI [18]: > 100 µM | TGI [19]: > 100 µM | TGI [20]: > 100 µM | TGI [22]: > 100 µM | TGI [23]: > 100 µM | TGI [24]: > 100 µM | TGI [25]: > 100 µM | TGI [26]: > 100 µM | TGI [27]: > 100 µM | TGI [28]: > 100 µM | TGI [29]: > 100 µM | TGI [30]: > 100 µM | TGI [31]: > 100 µM | TGI [32]: > 100 µM | TGI [34]: > 100 µM | TGI [35]: > 100 µM | TGI [36]: > 100 µM | TGI [37]: > 100 µM | TGI [38]: > 100 µM | TGI [40]: > 100 µM | TGI [41]: > 100 µM | TGI [42]: > 100 µM | TGI [43]: > 100 µM | TGI [45]: > 100 µM | TGI [46]: > 100 µM | TGI [47]: > 100 µM | TGI [48]: > 100 µM | TGI [49]: > 100 µM | TGI [57]: > 100 µM | TGI [58]: 96.4 µM | TGI [50]: > 100 µM | TGI [51]: > 100 µM | TGI [52]: > 100 µM | TGI [53]: > 100 µM | TGI [54]: > 100 µM | TGI [55]: > 100 µM | TGI [59]: > 100 µM

CCN1C(=O)C(=C/C=C/c2ccc(OC)cc2)C(=O)N(CC)C1=S
TGI [1]: 32.6 µM | TGI [3]: > 100 µM | TGI [4]: 31.5 µM | TGI [5]: 90.1 µM | TGI [6]: 47.2 µM | TGI [7]: 75.3 µM | TGI [8]: 36 µM | TGI [9]: 34 µM | TGI [10]: 78.9 µM | TGI [11]: > 100 µM | TGI [12]: 31.8 µM | TGI [13]: 36.4 µM | TGI [14]: > 100 µM | TGI [15]: 36.1 µM | TGI [56]: 28.9 µM | TGI [16]: > 100 µM | TGI [17]: 58.9 µM | TGI [18]: 35.7 µM | TGI [19]: > 100 µM | TGI [20]: 40.5 µM | TGI [21]: 32.6 µM | TGI [22]: 52.5 µM | TGI [23]: 28 µM | TGI [24]: > 100 µM | TGI [25]: 37.2 µM | TGI [26]: 43.6 µM | TGI [27]: 36.6 µM | TGI [28]: > 100 µM | TGI [29]: > 100 µM | TGI [30]: > 100 µM | TGI [31]: > 100 µM | TGI [33]: 37.4 µM | TGI [34]: 31.2 µM | TGI [35]: > 100 µM | TGI [36]: > 100 µM | TGI [37]: 44.7 µM | TGI [38]: 37.3 µM | TGI [39]: > 100 µM | TGI [40]: 39.8 µM | TGI [41]: 88.3 µM | TGI [42]: > 100 µM | TGI [43]: 40.4 µM | TGI [44]: > 100 µM | TGI [46]: 71.7 µM | TGI [47]: 57.8 µM | TGI [48]: 35.4 µM | TGI [49]: > 100 µM | TGI [50]: 44 µM | TGI [51]: > 100 µM | TGI [52]: 31.8 µM | TGI [53]: 36.6 µM | TGI [54]: 30.3 µM | TGI [55]: 31.7 µM | TGI [59]: > 100 µM
